The target in test [1] is T1, Nuclear factor erythroid 2-related factor 2 (Rattus norvegicus) (UniProt O54968).
T1 sequence (whole entry): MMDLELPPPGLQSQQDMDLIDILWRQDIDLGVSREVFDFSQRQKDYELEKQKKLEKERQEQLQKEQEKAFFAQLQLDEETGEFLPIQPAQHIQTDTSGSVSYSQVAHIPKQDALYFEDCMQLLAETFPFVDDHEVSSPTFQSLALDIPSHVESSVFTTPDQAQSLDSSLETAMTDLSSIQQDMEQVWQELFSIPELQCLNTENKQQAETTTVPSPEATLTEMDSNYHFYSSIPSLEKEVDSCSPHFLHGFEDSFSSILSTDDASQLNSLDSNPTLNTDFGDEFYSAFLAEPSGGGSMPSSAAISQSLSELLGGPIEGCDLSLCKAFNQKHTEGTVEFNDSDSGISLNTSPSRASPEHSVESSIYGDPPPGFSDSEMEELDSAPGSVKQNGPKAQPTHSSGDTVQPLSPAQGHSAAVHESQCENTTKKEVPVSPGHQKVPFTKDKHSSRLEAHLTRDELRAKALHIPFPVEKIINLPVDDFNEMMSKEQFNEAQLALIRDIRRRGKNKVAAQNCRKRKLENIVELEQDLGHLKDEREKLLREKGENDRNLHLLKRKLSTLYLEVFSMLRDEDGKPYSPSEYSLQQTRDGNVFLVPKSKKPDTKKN
As to the kind of experiment: Induction of NRF2/ARE enhancer activity rat PC12 cells transfected with ARE-firefly luciferase reporter gene at 10 uM after 24 hrs by luciferase assay. Format: functional, cell-based. The conditions noted are these: PC-12.

Test [2] concerns PC-12. Put plainly: Neuroprotective activity against H2O2-induced oxidative stress in rat PC12 cells assessed as cell viability pretreated with 10 uM for 6 hrs measured before inducer addition. To be noted: read-out: Activity. Format: functional.
The subject of test [3] is PC-12. Put plainly: Phosphorylation of p38 kinase in rat PC12 cells at 10 uM up to 120 mins by Western blot analysis. Format: cell-based.
Test [4] has as its target T1, Nuclear factor erythroid 2-related factor 2 (Rattus norvegicus). Put plainly: Activation of Nrf2/ARE in rat PC12 cells assessed as induction of GCSc protein expression at 10 uM by Western blot analysis. The format is functional, cell-based. The conditions noted are these: PC-12.
For test [5] the target is unchanged. Put plainly: Activation of Nrf2/ARE in rat PC12 cells assessed as upregulation of HO-1 protein expression at 10 uM after 12 hrs by Western blot analysis. The format is functional, cell-based. The conditions noted are these: PC-12.
Test [6] relates to PC-12. As to the kind of experiment: Increase in intracellular ROS production in rat PC12 cells assessed as induction of p38 phosphorylation at 10 uM after 1 hr by Western blot analysis. Format: functional, cell-based.
In test [7] the test system is PC-12. Put plainly: Neuroprotective activity against H2O2-induced oxidative stress in rat PC12 cells expressing dominant-negative Nrf2 mutant assessed as cell viability pretreated with 10 uM for 6 hrs. Format: functional, cell-based.
The target of test [8] is T1, Nuclear factor erythroid 2-related factor 2 (Rattus norvegicus). As to the kind of experiment: Effect on Nrf2 protein in rat PC12 cell cytoplasmic fraction at 10 uM up to 6 hrs by Western blot analysis. The format is functional, cell-based. The conditions noted are these: PC-12.
The target is the same in test [9]. Put plainly: Activation of Nrf2/ARE in rat PC12 cells assessed as upregulation of HO-1 mRNA expression at 10 uM after 6 hrs by RT-PCR. To be noted: PC-12. Format: functional, cell-based.
Test [10] has as its system PC-12. Put plainly: Neuroprotective activity against H2O2-induced oxidative stress in rat PC12 cells assessed as cell viability pretreated with 2 uM for 6 hrs measured before inducer addition. To be noted: read-out: Activity. Format: functional.
In test [11] the target is T1, Nuclear factor erythroid 2-related factor 2 (Rattus norvegicus). As to the kind of experiment: Activation of Nrf2/ARE in rat PC12 cells assessed as upregulation of HO-1 protein expression at 10 uM after 6 hrs by Western blot analysis. Format: functional, cell-based. The conditions noted are these: PC-12.
The target is the same in test [12]. Put plainly: Activation of Nrf2/ARE in rat PC12 cells assessed as upregulation of HO-1 protein expression at 1 to 10 uM after 12 hrs by Western blot analysis. The format is functional, cell-based. The conditions noted are these: PC-12.
For test [13] the target is unchanged. Put plainly: Induction of nuclear translocation of Nrf2 in rat PC12 cells at 10 uM after 6 hrs by Western blot analysis. Format: functional, cell-based. The conditions noted are these: PC-12.
Test [14] has as its system PC-12. Put plainly: Increase in intracellular ROS production in rat PC12 cells assessed as induction of p38 phosphorylation at 10 uM after 1 hr pretreated with N-acetylcysteine for 1 hr before compound addition by Western blot analysis. The format is functional, cell-based.
Test [15] relates to PC-12. As to the kind of experiment: Increase in intracellular ROS production in rat PC12 cells at 10 uM up to 1 hr by CM-H2-DCFDA staining-based fluorescence assay. The format is functional, cell-based.
Test [16] has as its system PC-12. Put plainly: Increase in intracellular ROS production in rat PC12 cells assessed as NRF2-mediated HO-1 induction at 10 uM after 24 hrs pretreated with N-acetylcysteine for 1 hr before compound addition by Western blot analysis. Format: functional, cell-based.
Test [17] deals with PC-12. As to the kind of experiment: Increase in intracellular ROS production in rat PC12 cells at 10 uM after 0.5 hr by CM-H2-DCFDA staining-based fluorescence assay. The format is functional, cell-based.
Test [18] addresses T1, Nuclear factor erythroid 2-related factor 2 (Rattus norvegicus). Put plainly: Activation of Nrf2/ARE in rat PC12 cells assessed as induction of NQO-1 protein expression by Western blot analysis. Format: functional, cell-based. The conditions noted are these: PC-12.
Test [19] has the same target. Put plainly: Activation of Nrf2/ARE in rat PC12 cells assessed as inhibition of H2O2-induced oxidative stress by measuring cell viability pretreated with 10 uM for 6 hrs in presence of HO-1 inhibitor Zn-protoporphyrin. The format is functional, cell-based. The conditions noted are these: PC-12.
For test [20], the system named is PC-12. As to the kind of experiment: Increase in intracellular ROS production in rat PC12 cells assessed as NRF2-mediated HO-1 induction at 10 uM after 24 hrs by Western blot analysis. The format is functional, cell-based.
The subject of test [21] is PC-12. As to the kind of experiment: Neuroprotective activity against H2O2-induced oxidative stress in rat PC12 cells assessed as cell viability pretreated with 5 uM for 6 hrs measured before inducer addition. The format is functional. To be noted: read-out: Activity.
Test [22] addresses Mitogen-activated protein kinase 3 (Rattus norvegicus) (UniProt P21708). As to the kind of experiment: Phosphorylation of ERK1 in rat PC12 cells at 10 uM after 30 mins by Western blot analysis. Format: cell-based. To be noted: PC-12.
Test [23] relates to PC-12. Put plainly: Increase in intracellular ROS production in rat PC12 cells at 10 uM after 6 hrs by CM-H2-DCFDA staining-based fluorescence assay. Format: functional, cell-based.
Test [24] deals with Mitogen-activated protein kinase 1 (Rattus norvegicus) (UniProt P63086). As to the kind of experiment: Phosphorylation of ERK2 in rat PC12 cells at 10 uM after 30 mins by Western blot analysis. The format is cell-based. The conditions noted are these: PC-12.
Mitogen-activated protein kinase 1 (Rattus norvegicus), sequence (P63086 whole entry): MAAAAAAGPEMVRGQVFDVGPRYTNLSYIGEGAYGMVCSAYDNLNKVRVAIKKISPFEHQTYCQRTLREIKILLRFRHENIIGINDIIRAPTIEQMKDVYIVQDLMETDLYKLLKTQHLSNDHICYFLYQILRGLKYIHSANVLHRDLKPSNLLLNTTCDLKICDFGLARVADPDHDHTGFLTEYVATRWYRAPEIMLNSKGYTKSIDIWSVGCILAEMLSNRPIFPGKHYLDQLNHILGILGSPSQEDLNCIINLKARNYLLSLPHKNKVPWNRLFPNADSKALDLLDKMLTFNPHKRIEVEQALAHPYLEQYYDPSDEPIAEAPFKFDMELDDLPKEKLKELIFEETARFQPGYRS
The target of test [25] is T1, Nuclear factor erythroid 2-related factor 2 (Rattus norvegicus). As to the kind of experiment: Activation of Nrf2/ARE in rat PC12 cells assessed as effect on HO-1 protein level at 10 uM after 24 hrs by Western blot analysis. To be noted: PC-12. The format is functional, cell-based.
The test system of test [26] is PC-12. As to the kind of experiment: Phosphorylation of JNK in rat PC12 cells at 10 uM up to 120 mins by Western blot analysis. The format is cell-based.
The target in test [27] is T1, Nuclear factor erythroid 2-related factor 2 (Rattus norvegicus). As to the kind of experiment: Induction of nuclear translocation of Nrf2 in rat PC12 cells at 10 uM after 1 hr by Western blot analysis. The format is functional, cell-based. To be noted: PC-12.

Molecules are shown by their SMILES. Active and inactive are the calls of the source. The rule behind the calls is not given here.

Mitogen-activated protein kinase 3 (Rattus norvegicus), sequence (P21708 whole entry): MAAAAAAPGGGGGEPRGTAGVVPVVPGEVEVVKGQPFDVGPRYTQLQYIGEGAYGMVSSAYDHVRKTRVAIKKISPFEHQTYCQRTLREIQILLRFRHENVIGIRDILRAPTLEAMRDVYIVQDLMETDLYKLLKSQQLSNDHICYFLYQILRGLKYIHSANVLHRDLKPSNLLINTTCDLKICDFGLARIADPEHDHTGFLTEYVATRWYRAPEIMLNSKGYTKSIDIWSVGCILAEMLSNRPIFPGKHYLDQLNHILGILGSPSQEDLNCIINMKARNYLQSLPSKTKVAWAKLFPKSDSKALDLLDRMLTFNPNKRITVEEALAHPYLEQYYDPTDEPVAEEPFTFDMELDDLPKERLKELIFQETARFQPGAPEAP

For `COc1cc(C2OC[C@@H]3C(c4ccc5c(c4)OCO5)OC[C@H]23)ccc1O` (mixture of isomers), the result in test [1] was inactive.

In the case of `Oc1ccc([C@H]2OC[C@H]3[C@@H]2CO[C@H]3c2ccc(O)c(O)c2)cc1O`, the outcome in test [1] was inactive.

`Oc1ccc([C@H]2OC[C@H]3[C@@H]2CO[C@@H]3c2ccc3c(c2)OCO3)cc1O`: in the test with PC-12 [2], the viability at 10 µM is 82%. Besides, the result (with PC-12 [3]; in [4]; in [5]; in the test on PC-12 [6]; in [11]; in test [13]) was Active. The outcome (with PC-12 [15]; in the test on PC-12 [17]; in test [18]; in the test on PC-12 [20]; in test [22]; in test [24]) was Active. Besides, the result (in the test on PC-12 [26]; in [27]) was Active. Further, the fold change (FC) turned out to be 2 in [1] and 6 in [9]. The outcome (in the test on PC-12 [7]; in test [8]; with PC-12 [14]; in the test with PC-12 [16]; in test [19]; in the test on PC-12 [23]) was inactive. In addition, the result in test [25] was inactive. Besides, the viability at 2 µM in the test with PC-12 [10] stood at 52%. Moreover, in [12], the Activity result is “Dose-dependent effect”. Besides, in the test on PC-12 [21], the viability at 5 µM was 67%.

For `c1cc2c(cc1[C@H]1OC[C@H]3[C@@H]1CO[C@@H]3c1ccc3c(c1)OCO3)OCO2`, the result in [1] was inactive.

Turning to `Oc1ccc([C@H]2OC[C@H]3[C@@H]2CO[C@@H]3c2ccc(O)c(O)c2)cc1O`, in test [1], the outcome was Active.

Turning to `Oc1ccc(C2OC[C@@H]3C(c4ccc5c(c4)OCO5)OC[C@H]23)cc1O` (some centres undefined), the fold change (FC) in [1] came out at 2.

As for `c1cc2c(cc1[C@H]1OC[C@H]3[C@@H]1CO[C@H]3c1ccc3c(c1)OCO3)OCO2`, in test [1], the outcome was inactive.

As for `COc1cc([C@H]2OC[C@H]3[C@@H]2CO[C@@H]3c2ccc3c(c2)OCO3)ccc1O`, the outcome in test [1] was inactive.

The values are drawn from ChEMBL document CHEMBL1687931, “Involvement of heme oxygenase-1 induction via Nrf2/ARE activation in protection against H2O2-induced PC12 cell death by a metabolite of sesamin contained in sesame seeds” (2011).
